The values that follow come from US20020173424A1, “Heterocyclyl-substituted benzoylcyclohexandiones, their preparation, and their use as herbicides” (priority 2000, published 2002).

The subject of one data set is Setaria species. The data set can be described thus: Comparative experiment, post-emergence action against Setaria species. The class given is in vivo. Conditions: even at a lower application rate. As to the method:
Seeds of monocotyledonous and dicotyledonous weeds are placed in sandy loam soil in cardboard pots, covered with soil and grown in the greenhouse under good growth conditions. Two to three weeks after sowing, the experimental plants are treated at the three-leaf stage. The compounds according to the invention, which are formulated as wettable powders or as emulsion concentrates, are sprayed at a rate of 1 kg of active substance or less per hectare (converted) onto the green plant organs at an application rate of 600 to 800 l of water per ha (converted). After the experimental plants have remained in the greenhouse for approx. 3 to 4 weeks under optimal growth conditions, the effect of the compositions is scored visually in comparison with untreated controls. The compounds according to the invention also have a good herbicidal action against a broad spectrum of economically important monocotyledonous and dicotyledonous harmful plants when applied post-emergence. A large number of compositions according to the invention have an outstanding herbicidal action against the harmful plants.
5. Comparative Experiments
Analogously to the experimental conditions mentioned under item 2 (post-emergence herbicidal action), compound No. 1.1 according to the invention was compared with a prior-art compound with regard to its effect against Setaria species.

In the case of `CS(=O)(=O)c1ccc(C(=O)C2C(=O)CCCC2=O)c(Cl)c1C1=NOC2OCCC12` (centres unmarked) [1.1, 2-[2-chloro-4-methylsulfonyl-3-(3a,4,5,6a-tetrahydrofuro-[3,2-d]isoxazol-3-yl)benzoyl]cyclohexane-1,3-dione], the “action against Setaria species compared with prior-art compound” value in the data set on Setaria species is “more potent action against Setaria species than the prior-art compound”.
`CCS(=O)(=O)c1ccc(C(=O)C2C(=O)CCCC2=O)c(Cl)c1C1=NOC2OCCC12` (centres unmarked) [1.2, 2-[2-chloro-4-ethylsulfonyl-3-(3a,4,5,6a-tetrahydrofuro[3,2-d]isoxazol-3-yl)benzoyl]cyclohexane-1,3-dione] had a melting point of 99 °C.

One may read the melting point as the temperature of the solid-liquid transition.
